“Also recorded” adds a separate entry of the source. Where two headings read alike, the source gives them in different places.
Tests used:
[1] = test system: glucose limitation sensitive or resistant cell lines
Method: (§1) 250,000 cells then were attached to the plate by centrifugation at 2200 rpm without brakes for 5 min. For adherent cells, 40,000 to 80,000 cells were plated the night before the experiments. […] For spare respiratory capacity measurements, increasing FCCP concentrations (0.1, 0.5 and 2 uM) were used in order to assess maximum OCR of each cell line. For basal oxygen consumption measurements, cell number or protein concentration was used for normalization.
Metabolic responses of cell lines to mitochondrial uncoupling were analyzed by treating cells from a number of glucose limitation sensitive or resistant cell lines with the mitochondrial uncoupling agent FCCP and measuring OCR.

[2] = test system: glucose limitation sensitive and glucose limitation resistant tumor cell lines; assay: Proliferation of tumor cell lines exposed to metformin under low glucose; type: cell-based
Method: We tested the sensitivity of a panel of glucose limitation sensitive and glucose limitation resistant tumor cell lines to treatment with metformin, a compound that inhibits OXPHOS at least in part by inhibiting complex 1. Cells were exposed to 2 mM metformin for 3 days.

[3] = test system: panel of 8 cell lines with varying expression of CYC1 and UQCRC1; assay: Metformin sensitivity versus CYC1 and UQCRC1 expression in a panel of 8 cell lines; type: cell-based; conditions: 1 mM glucose as low glucose condition
Method: We tested the hypothesis that expression of CYC1 and UQCRC1 could predict sensitivity to metformin under conditions in which glucose is limiting. […] 1 mM glucose was used as a low glucose condition in this experiment.

[4] = test system: tumors from glucose limitation sensitive cell line NCI-H929; assay: Metformin treatment of mice with established tumors; type: in vivo; conditions: metformin 400 mg/kg, close to 3 weeks
Method: (§2) In vivo data was obtained initially using one cell line that is resistant to glucose limitation (NCI-H82) and one cell line that is sensitive to glucose limitation (NCI-H929). Mice harboring established tumors derived from these cell lines were treated with metformin (400 mg/kg) or vehicle (PBS) for close to 3 weeks and tumor size was measured. The tumor sizes were averaged for all tumors in that particular group at the end. […] Tumors from the sensitive line are on average half the size in mice treated with metformin than in mice treated with vehicle.

[5] = test system: tumors from glucose limitation resistant cell line NCI-H82; assay: as above; type: in vivo; conditions: metformin 400 mg/kg, close to 3 weeks
Method: as §2

[6] = among tetracycline-class antibiotics; cited from earlier work
Cal-62 cells = assay: Long term culture of mtDNA mutant cells in phenformin; type: cell-based; conditions: Cal-62, 1.5 months, 5-20 uM phenformin
Method: Cells were split 1:10 when nearing confluence. […] The ratio of wild type to mutant mtDNA was calculated by summing the 11 Sanger Sequencing peak height measurements per nucleotide position for the wild type and mutant allele allowing for the percent mutant calculated. These values were averaged over three nucleotide positions for which the base in the wild type and mutant sequence differs.

[7] = test system: cell lines with mtDNA-encoded Complex I mutations or impaired glucose utilization
[8] = test system: cells with mutations in Complex I; assay: Oxygen consumption rate (OCR) with phenformin, control or NDI1-expressing lines; type: cell-based
Method: as §1

[9] = test system: xenografts of mtDNA mutant cells expressing NDI1; assay: Phenformin in drinking water, xenografts of NDI1-expressing cells; type: in vivo, mice
Method: (§3) Further in vivo experiments were conducted using additional tumor cell lines. Xenografts were initiated with 2-5 million cells per injection site implanted subcutaneously into the right and left flanks of 5-8 week old male NOD.CB 17 Scid/J mice (Jackson Labs). Once tumours were palpable in all animals (>50 mm^3 volume by caliper measurements), mice were assigned randomly into biguanide treated or untreated groups and caliper measurements were taken every 3-4 days until tumour burden approached the limits set by institutional guidelines. Tumour volume was assessed according to the formula ½*W*W*L or 4/3*3.14*W/2*L/2*D/2 for large tumors. […] All experiments involving mice were carried out with approval from the Committee for Animal Care at MIT and under supervision of the Department of Comparative Medicine at MIT.

BxPC3 xenografts = assay: Phenformin in drinking water, tumour xenografts; type: in vivo, mice; conditions: BxPC3 (mtDNA mutations); phenformin 1.7 mg/ml in drinking water
Method: as §3

KMS-26 xenografts = assay: Phenformin in drinking water, tumour xenografts; type: in vivo, mice
Method: as §3

U-937 xenografts = assay: Phenformin in drinking water, tumour xenografts; type: in vivo, mice; conditions: U-937 (mtDNA mutations); phenformin 1.7 mg/ml in drinking water
Method: as §3

Cal-62 xenografts = assay: Phenformin in drinking water, tumour xenografts; type: in vivo, mice; conditions: Cal-62 (mtDNA mutations); phenformin 1.7 mg/ml in drinking water
Method: as §3

NCI-H929 xenografts = assay: Phenformin in drinking water, tumour xenografts; type: in vivo, mice; conditions: NCI-H929 (poor glucose consumption); phenformin 1.7 mg/ml in drinking water
Method: as §3

143B Rho cells = assay: Proliferation of cells lacking mtDNA with phenformin; conditions: 0.75 mM or 10 mM glucose

## N#CC(C#N)=NNc1ccc(OC(F)(F)F)cc1 [FCCP, Carbonyl cyanide 4-(trifluoromethoxy)phenylhydrazone]
[1]; glucose limitation resistant cell lines
  increase in OCR upon FCCP: much greater increase in OCR
[1]; glucose limitation sensitive cells
  increase in OCR upon FCCP: only a modest increase

## CN(C)C(=N)NC(=N)N [metformin, N,N-dimethylimidodicarbonimidic diamide]
[2]; 2 mM metformin, 3 days, 0.75 mM glucose
  sensitivity to metformin (proliferation) of glucose limitation sensitive versus resistant cell lines: markedly more sensitive; also recorded: greater inhibitory effects on proliferation
[2]; U937 cell line
  sensitivity of U937 cells to metformin: sensitive
[3]
  relation of UQCRC1+CYC1 expression to metformin sensitivity: correlated with sensitivity to metformin; also recorded: increased sensitivity
[4]
  cleaved caspase 3 in tumors compared with vehicle: increase in cleaved caspase 3; also recorded: increased level of cleaved caspase 3
  reduction in size of tumors compared with vehicle (PBS): approximately 50%
  tumor size in metformin treated versus vehicle treated mice: half the size
[5]
  cleaved caspase 3 in tumors compared with vehicle: not observed
  effect on size of tumors compared with vehicle (PBS): did not affect size of tumors

## CN(C)c1ccc(O)c2c1C[C@H]1C[C@H]3[C@H](N(C)C)C(O)=C(C(N)=O)C(=O)[C@@]3(O)C(O)=C1C2=O [minocycline, (2E,4S,4aR,5aS,12aR)-2-(amino-hydroxy-methylidene)-4,7-bis(dimethylamino)-10,11,12a-trihydroxy-4a,5,5a,6-tetrahydro-4H-tetracene-1,3,12-trione]
[6]
  penetration into organs: greatest penetration into certain organs such as the prostate and brain

## N=C(N)NC(=N)NCCc1ccccc1 [phenformin, 2-(N-phenethylcarbamimidoyl)guanidine]
Cal-62 cells
  sensitivity to low glucose after culture in phenformin: decrease in sensitivity to low glucose
  wild-type mtDNA content after culture in phenformin: significantly enriched wild-type mtDNA content
[7]; 1.5-3.0 mM glucose
  phenformin sensitivity at intermediate glucose: substantial sensitivity persisted
[7]; BxPC3 pancreatic cancer cell line
  sensitivity of BxPC3 cells to phenformin: sensitive
[7]; cells with impaired glucose utilization, 0.75 mM glucose
  effect of GLUT3 over-expression on phenformin sensitivity: almost completely rescued the phenformin sensitivity
[7]; cells with mutations in Complex I, 0.75 mM glucose
  effect of NDI1 expression on the effects of phenformin on proliferation: almost completely rescued the effects of phenformin
[7]; low glucose sensitive cell lines, particularly those with impaired glucose utilization
  phenformin sensitivity in 0.75 versus 10 mM glucose: more sensitive to phenformin in 0.75 than 10 mM glucose
[8]
  effect of NDI1 expression on the effects of phenformin on oxygen consumption: almost completely rescued the effects of phenformin
[9]
  effects of phenformin on xenograft growth after introduction of NDI1: rescued
BxPC3 xenografts
  growth of tumour xenografts: inhibited the growth
KMS-26 xenografts; KMS-26 (poor glucose consumption), phenformin 1.7 mg/ml in drinking water
  growth of tumour xenografts: inhibited the growth
KMS-26 xenografts; KMS-26 cells over-expressing GLUT3
  effects of phenformin on xenograft growth after over-expression of GLUT3: rescued
U-937 xenografts
  growth of tumour xenografts: inhibited the growth
Cal-62 xenografts
  growth of tumour xenografts: inhibited the growth
NCI-H929 xenografts
  growth of tumour xenografts: inhibited the growth
143B Rho cells
  sensitivity of cells lacking mtDNA to phenformin: insensitive to phenformin

Reference: patent US20140348749A1, “IDENTIFICATION AND TREATMENT OF TUMORS SENSITIVE TO GLUCOSE LIMITATION” (Whitehead Institute for Biomedical Research, priority 2013, published 2014)
